Experimental data: patent US8497349B2, “Use of multivalent synthetic ligands of surface nucleolin for treating cancer or inflammation” (Centre National de la Recherche Scientifique (CNRS), priority 2006, dated 2013)
One block for each compound: values may come before it. Side chains are listed from the residue outwards. Peptide text beside a SMILES is read from it. * marks the point of attachment. X1 = NCCCC[C@H](N)CN1CCC[C@H]1C(=O)*

Columns and labels:
MDA-MB231 tumours = assay: Tumour growth in MDA-MB231 xenograft model in athymic mice; type: in vivo, athymic mice (nude/nude)
Procedure: FIG. 9. Effect of HB-19 on tumour growth in an MDA-MB231 xenograft model. Human mammary carcinoma MDA-MB231 cells were injected subcutaneously athymic mice (nude). When the tumour reached a volume of 200 mm^3, mice were treated by subcutaneous route as shown in graph in A. B. Observation and measurement of tumours in mice sacrificed at day 40. C. Tumour weight in mice sacrificed at day 40.
FIG. 10. Effect of HB-19 on tumour growth in an MDA-MB231 xenograft model. Changes in tumour growth. Intraperitoneal (IP) or subcutaneous (SC) injections.
Groups of 4 athymic mice (nude/nude) were injected in the flank with 2×10^6 cells. When tumour volume reached at least 200 mm^3, mice were either treated or not by injection in the tumour (peritumoral or subcutaneous route) of 100 μl every two days of a PBS solution (control group) or HB-19 solution (5 mg/kg) or a commonly used clinical agent, tamoxifen (also called […], 10 mg/kg). Tumour size was measured on days 7, 14, 21, 28, 34 and 40 using a calliper.
In another experiment, HB19 (5 mg/kg) was administered by intraperitoneal route (IP) and peritumoral route (SC) (FIG. 10).

surface nucleolin = target: T1, surface nucleolin (Homo sapiens, UniProt P19338); assay: Activity of surface nucleolin in HeLa P4 cells; type: cell-based
T1 construct: endogenous in cells; host or cells: HeLa P4 cells
Procedure: FIG. 15. Nucant 6 and Nucant 7 show better anti-surface nucleolin activity than HB-19. ID50: concentration in μM which inhibits surface nucleolin by 50%. ID95: concentration in μM which inhibits surface nucleolin by 95%.
The activity of surface nucleolin was tested in HeLa P4 cells using the technique we have described previously (13).

NIH-3T3 cells = assay: Proliferation of NIH-3T3 cells stimulated by 5% foetal calf serum (tritiated thymidine incorporation); type: cell-based; conditions: non-stimulated NIH-3T3 cells
Procedure: FIG. 5. Effect of HB-19 on the proliferation of NIH-3T3 cells stimulated by 0.2 nM FGF-2 (A) or by 5% foetal calf serum (B). Quiescent NIH-3T3 cells are stimulated by FGF-2 or by 5% serum in the presence or not of HB19 at the concentrations indicated. After 24 hours of incubation, cell proliferation was determined by measuring the incorporation of tritiated thymidine. The results are given as a percentage with respect to the control stimulated by HARP (100%). MSD (threshold), (**p<0.01 and ***p<0.001).
FIG. 14. Effect of NUCANT 3, 6 and 7 on the proliferation of NIH-3T3 cells stimulated by 5% FCS. […] After 24 hours of incubation, cell proliferation was determined by measuring the incorporation of tritiated thymidine. […]
The effect of Nucant 3 on the proliferation of NIH-3T3 cells treated by 5% of FCS was also compared to that of compound HB-19. […] After 24 hours in incubation, cell proliferation is determined by measuring the incorporation of tritiated thymidine as described earlier.
The effect of hexavalent compounds Nucant 6 and Nucant 7 on the proliferation of NIH-3T3 cells triggered by 5% FCS was compared with that of pentavalent compound HB-19. […] After 24 hours of incubation, cell proliferation was determined by measuring the incorporation of tritiated thymidine as described above.

[1] = cited from earlier work
[2] = 10 mg/kg, mice sacrificed after 40 days of treatment

T1 sequence (P19338 whole entry): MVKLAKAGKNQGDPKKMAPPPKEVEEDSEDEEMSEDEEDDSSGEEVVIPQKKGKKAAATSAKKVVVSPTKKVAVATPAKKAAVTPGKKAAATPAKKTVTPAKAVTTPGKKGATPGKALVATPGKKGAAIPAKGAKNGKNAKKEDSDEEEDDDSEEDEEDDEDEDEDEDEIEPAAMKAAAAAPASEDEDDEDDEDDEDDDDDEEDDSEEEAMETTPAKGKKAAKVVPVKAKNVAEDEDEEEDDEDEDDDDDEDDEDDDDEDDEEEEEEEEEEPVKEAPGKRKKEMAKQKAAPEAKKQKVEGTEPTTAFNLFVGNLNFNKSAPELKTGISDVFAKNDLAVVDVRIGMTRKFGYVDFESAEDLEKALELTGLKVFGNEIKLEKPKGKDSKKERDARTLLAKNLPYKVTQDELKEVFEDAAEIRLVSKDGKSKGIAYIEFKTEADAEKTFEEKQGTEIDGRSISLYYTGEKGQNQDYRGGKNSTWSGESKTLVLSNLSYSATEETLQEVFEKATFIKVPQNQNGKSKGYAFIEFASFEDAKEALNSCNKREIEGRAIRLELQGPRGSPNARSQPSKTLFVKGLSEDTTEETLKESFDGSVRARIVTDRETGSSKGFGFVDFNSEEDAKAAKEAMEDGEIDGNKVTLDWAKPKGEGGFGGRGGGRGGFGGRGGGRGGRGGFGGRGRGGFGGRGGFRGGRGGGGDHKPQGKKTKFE

Compound: CC/C(=C(\c1ccccc1)c1ccc(OCCN(C)C)cc1)c1ccccc1 [tamoxifen]
change of tumour volume from the start of treatment (MDA-MB231 tumours; 10 mg/kg every two days): did not change in a significant manner | average weight of tumours (MDA-MB231 tumours; [2]): 0.06 g | distribution of tumour weight (MDA-MB231 tumours; [2]): 0.006 to 0.22 g

inhibition at 0.8 µM (surface nucleolin; M-HeLa, 0.8 μM): > 95% | IC50 (surface nucleolin; read-out: ID50 value (Inhibitory Dose at 50%), surface nucleolin activity): < 100 nM
Compound: CC(=O)N[C@@H](CCCCNC(=O)[C@H](CCCNC(=N)N)NC(=O)[C@@H]1CCCN1C[C@@H](N)CCCCN)C(=O)N[C@@H](C)C(=O)N[C@@H](CCCCNC(=O)[C@H](CCCNC(=N)N)NC(=O)[C@@H]1CCCN1C[C@@H](N)CCCCN)C(=O)N1CCC[C@H]1C(=O)NCC(=O)N[C@@H](CCCCNC(=O)[C@H](CCCNC(=N)N)NC(=O)[C@@H]1CCCN1C[C@@H](N)CCCCN)C(=O)N[C@@H](C)C(=O)N[C@@H](CCCCNC(=O)[C@H](CCCNC(=N)N)NC(=O)[C@@H]1CCCN1C[C@@H](N)CCCCN)C(=O)N1CCC[C@H]1C(=O)NCC(=O)N[C@@H](CCCCNC(=O)[C@H](CCCNC(=N)N)NC(=O)[C@@H]1CCCN1C[C@@H](N)CCCCN)C(=O)N[C@@H](C)C(=O)N[C@@H](CCCCNC(=O)[C@H](CCCNC(=N)N)NC(=O)[C@@H]1CCCN1C[C@@H](N)CCCCN)C(=O)N1CCC[C@H]1C(=O)NCC(N)=O [Nucant 7] (Ac-K([Arg-X1])AK([Arg-X1])PGK([Arg-X1])AK([Arg-X1])PGK([Arg-X1])AK([Arg-X1])PG-NH2)
effect on non-stimulated cells (toxicity) (NIH-3T3 cells): No effect

Compound: Avastin: anti-angiogenic agent
survival ([1]; complement to chemotherapy (irinotecan/5-fluorouracile/leucovorin)): 20.3 months | length of time during which the tumour did not grow ([1]; complement to chemotherapy): 10.6 months
